Where only a bound is given, the exact number is not on record here.

In one data set the test system is Fuji apple. The data set is described as follows: Fruition rate of Fuji apple according to blooming period of treatment. In kind it is in vivo. Conditions: 1 mM with siloxane spreader 0.0335%. As to the method: To test the effect of a style-specific RNase inhibitor of the present invention in a practical cultivating environment, the style-specific RNase of the present invention was treated to Fuji apple that was cultivated in a greenhouse for research (located in Cheongsong-gun, Kyungsangpukdo, Republic of Korea). In the present invention, the experiment was performed under the environmental condition that can keep the Fuji apple, a representative plant having gametophytic self-incompatibility, a single species genetically. To determine the treatment period of a style-specific RNase inhibitor, the inhibitor was treated at the early blooming period (budding formation period˜prior to full blooming), the middle blooming period (full blooming) and the late blooming period (1 day after full blooming˜falling period of petal) respectively. A composition, which was manufactured by mixing the spreader of siloxane class (brand name: silhouette, Dongbu precision chemical company, Korea) with the inhibitor to the concentration of 0.0335%, was treated under the same condition of the Example 5-1, and the results were shown in Table 5.

Data set [1] concerns wild-type tomato and Fuji apple. The data set is classed as in vivo. The conditions noted are these: for the highest concentration not showing harmful effects of a medicine: in vivo; for the lowest concentration showing inhibiting effect: treated at the early blooming period. The protocol:
Moreover, to investigate preferable concentration of treatment of the regulation composition for gametophytic self-incompatibility of the present invention, […] ppm CuSO4 and ZnSO4 were treated to wild-type tomato and Fuji apple at the early blooming period and the harmful effects of a medicine and fruition rates were investigated (see FIGS. 6 and 7). Since absorption rate of the regulation composition for gametophytic self-incompatibility of the present invention can be increased by treating it with a spreader in cultivating fruit trees, the CuSO4 and ZnSO4 were treated with a spreader by a method of spraying on the fruit trees at a specific period, that is, the early blooming period. Thus, it was shown that fruits and plants that are pollinated by self-pollen could be acquired by the treatment of a specific concentration of CuSO4 and ZnSO4 in wild-type tomato and Fuji apple without harmful effects of the medicine. From the results, it can be concluded that an inhibitor composition of a style-specific RNase of the present invention is effective in inhibition of a style-specific RNase without respect to species, and preferable concentration of CuSO4, which is treated at the early blooming period, is at 100˜700 ppm and preferable concentration of ZnSO4 is at 100˜800 ppm. Furthermore, very high pollination rate, without harmful effects of a medicine, could be achieved by spraying the inhibitor composition for gametophytic self-incompatibility of the present invention, which was mixed with the desirable amount of spreader according to the manufacturers' instruction. Among the spreaders, the spreader of hexaconazole class, siloxane class and alkylaryl polyethoxylate class is preferable to achieve high fruition rate. The preferable concentration of the inhibitor composition for gametophytic self-incompatibility of the present invention was shown in table 1. When CuSO4 is used as an effective component of the style-specific RNase inhibitor as shown in the table 1, if the concentration of CuSO4 is below 100 ppm, it is difficult to achieve a stable fruition rate over 70% because it cannot inhibit RNase activity appropriately, on the other hand, if the concentration of CuSO4 is over 700 ppm, it is not economical because it can induce harmful effects of a medicine. Furthermore, when ZnSO4 is used as an effective component of the style-specific RNase inhibitor, if the concentration of ZnSO4 is below 100 ppm, it is difficult to achieve a stable fruition rate over 70% because it cannot inhibit RNase activity appropriately, on the other hand, if the concentration of ZnSO4 is over 800 ppm, it is not economical because it can induce harmful effects of a medicine.

With `O=S(=O)([O-])[O-].[Cu+2]` [CuSO4], the Fruition rate is 0 in the data set on Fuji apple (1 day after full blooming); 0 in the data set on Fuji apple (1 day before blooming); 0 with Fuji apple (2 days after full blooming); more than 24% in the data set with Fuji apple (2 days before blooming); more than 70% in the data set with Fuji apple (3 days before blooming); more than 86% with Fuji apple (4 days before blooming). The Fruition rate in the data set on Fuji apple (5 days before blooming) is listed as more than 91%; in the data set with Fuji apple (full blooming), 0. In data set [1], the “the highest concentration not showing harmful effects of a medicine” value worked out at 700 ppm. In addition, in data set [1], the “the lowest concentration showing inhibiting effect” value turned out to be 100 ppm.
Turning to `O=S(=O)([O-])[O-].[Zn+2]` [ZnSO4], the Fruition rate in the data set with Fuji apple (1 day after full blooming) is listed as 0; in the data set on Fuji apple (1 day before blooming) it was 0; with Fuji apple (2 days after full blooming) it was 0; with Fuji apple (2 days before blooming) it was more than 32%; in the data set with Fuji apple (3 days before blooming) it was more than 71%; in the data set with Fuji apple (4 days before blooming), more than 93%. In addition, the Fruition rate with Fuji apple (5 days before blooming) was more than 92%; in the data set with Fuji apple (full blooming) it was 0. Moreover, the “the highest concentration not showing harmful effects of a medicine” value in data set [1] amounted to 800 ppm. In addition, the “the lowest concentration showing inhibiting effect” value in data set [1] came to 100 ppm.

These data come from patent US6723680B2, “Composition for regulation of gametophytic self-incompatibility, control method of gametophytic self-incompatibility of a plant and the plant self-pollinated by using said control method” (Istech Co., Ltd., priority 2000, dated 2004).
